In patent EP0767786B1, “7-ETHER-TAXOL ANALOGS, ANTINEOPLASTIC USE AND PHARMACEUTICAL COMPOSITIONS CONTAINING THEM” (PHARMACIA & UPJOHN COMPANY, priority 1994, dated 1996):
Values after ≈ are worked out from the molar mass of the structure shown. Where two headings read alike, the source gives them in different places.

Experiments:
[1] = tested on: L1210 mouse leukemia carcinoma cells; experiment: cytotoxicity / inhibition of cell proliferation in L1210 leukemia cells in culture; format: cell-based; settings: drug concentration required to inhibit cell proliferation to 50% of that of untreated control cells; for IC50: Mus musculus, L1210, read-out: L1210 (IC50 ug/ml)
Text: (§1) The biological activity of the 7-deoxy-7-ether-taxol compounds (Formula I) of the invention has been confirmed using well known procedures.
The biological activity of the compounds of this invention has been further confirmed using well known procedures against L1210 leukemia and the results set forth in Table I. The results were obtained using standard well known procedure (Li, L.H.; Kuentzel, S.L.; Murch, L.L.; Pschigoga, L.M.; and W.C. Krueger, "Comparative biological and biochemical effects of nogalamycin and its analogs on L1210 leukemia," Cancer Res. 39:4816-4822 (1979)). The results are expressed as an IC50 which is the drug concentration required to inhibit cell proliferation to 50% of that of untreated control cells. Lower numbers indicated greater activity.

[2] = tested on: A2780 human ovarian carcinoma; experiment: activity against A2780 human ovarian carcinoma cells; format: cell-based; settings: for IC50: read-out: A2780 (IC50 ug/ml)
Text: The biological activity of the compounds of this invention has been further confirmed using well known procedures against A2780 human ovarian carcinoma and the results set forth in Table II. The results were obtained using standard well known procedure (Perez, R. P.; O'Dwyer, P. J.; Handel, L. M.; Ozols, R. F.; Hamilton, T. C. Int. J. Cancer 1991, 48, 265, Alley, M.C.; Scudiero, D. A.; Monks, A.; Hursey, M. L; Czerwinski, M. J.; Fine, D. L.; et al. Cancer Res 1988, 48, 589).

tubulin = experiment: in vitro tubulin polymerization assay (after Gaskin et al.); format: biochemical; settings: in vitro at 20°C, compared with taxol
Text: as §1

[3] = tested on: L1210 mouse leukemia carcinoma cells; experiment: cytotoxicity / inhibition of cell proliferation in L1210 leukemia cells in culture; format: cell-based

| A2780 (IC50 ug/ml) [2] [µg/mL] | Molecule | L1210 (IC50 ug/ml) [1] [µg/mL] | further results |
| --- | --- | --- | --- |
| – | 7-[O-(2,2,2-trichloroethoxy)methoxymethyl]-13-(N-Boc-β-phenyl isoserinyl)-baccatin III [Compound 22] | 0.0047 | – |
| – | 7-[O-(2,2,2-trichloroethoxy)methyl]-13-(N-Boc-β-phenyl isoserinyl)-baccatin III [Compound 21] | 0.0024 | – |
| 0.0007 | CCOCOC1CC2OCC2(OC(C)=O)C2C(OC(=O)c3ccccc3)C3(O)CC(OC(=O)C(O)C(NC(=O)OC(C)(C)C)c4ccccc4)C(C)=C(C(OC(C)=O)C(=O)C12C)C3(C)C (stereo not drawn) [Compound 4, 7-(O-ethoxymethyl)-13-(N-Boc-β-phenylisoserinyl)-baccatin III] | – | induce tubulin polymerization in vitro (tubulin): able to induce tubulin polymerization in vitro at 20 °C in a manner very similar to taxol |
| – | COCCOCOC1CC2OCC2(OC(C)=O)C2C(OC(=O)c3ccccc3)C3(O)CC(OC(=O)C(O)C(NC(=O)OC(C)(C)C)c4ccccc4)C(C)=C(C(OC(C)=O)C(=O)C12C)C3(C)C (stereo not drawn) [Compound 6, 7-(O-methoxyethoxymethyl)-13-(N-Boc-β-phenylisoserinyl)-baccatin III] | 0.0023 | – |
| – | COCOC1CC2OCC2(OC(C)=O)C2C(OC(=O)c3ccccc3)C3(O)CC(OC(=O)C(O)C(NC(=O)OC(C)(C)C)c4ccccc4)C(C)=C(C(OC(C)=O)C(=O)C12C)C3(C)C (stereo not drawn) [Compound 8, 7-(O-methoxymethyl)-13-(N-Boc-2'-β-phenylisoserinyl)-baccatin III] | 0.0011 | IC90 (90% growth inhibitory concentration) [3]: 0.0011 micrograms/ml |
| – | CC(=O)OC1C(=O)C2(C)C(OCOCc3ccccc3)CC3OCC3(OC(C)=O)C2C(OC(=O)c2ccccc2)C2(O)CC(OC(=O)C(O)C(NC(=O)OC(C)(C)C)c3ccccc3)C(C)=C1C2(C)C (stereo not drawn) [Compound 10, 7-(O-benzyloxymethyl)-13-(N-Boc-β-phenylisoserinyl)-baccatin III] | 0.001 | – |
| 0.00007 | CCOCOC1CC2OCC2(OC(C)=O)C2C(OC(=O)c3ccccc3)C3(O)CC(OC(=O)C(O)C(NC(=O)NC(C)(C)C)c4ccccc4)C(C)=C(C(OC(C)=O)C(=O)C12C)C3(C)C (stereo not drawn) [Compound 14, 7-(O-ethoxymethyl)-13-(N-(t-butylaminocarbonyl)-β-phenylisoserinyl)-baccatin III] | 0.0014 | – |
| 0.00004 | COCOC1CC2OCC2(OC(C)=O)C2C(OC(=O)c3ccccc3)C3(O)CC(OC(=O)C(O)C(NC(=O)NC(C)(C)C)c4ccccc4)C(C)=C(C(OC(C)=O)C(=O)C12C)C3(C)C (stereo not drawn) [Compound 27, 7-(O-methoxymethyl)-13-(N-(t-butylaminocarbonyl)-β-phenylisoserinyl)-baccatin III] | – | induce tubulin polymerization in vitro (tubulin): able to induce tubulin polymerization in vitro at 20 °C in a manner very similar to taxol |
| 0.00037 | CSCOC1CC2OCC2(OC(C)=O)C2C(OC(=O)c3ccccc3)C3(O)CC(OC(=O)C(O)C(NC(=O)OC(C)(C)C)c4ccccc4)C(C)=C(C(OC(C)=O)C(=O)C12C)C3(C)C (stereo not drawn) [Compound 44, 7-(O-methylthiomethyl)-13-(N-Boc-β-phenylisoserinyl)-baccatin III] | – | – |
| 0.00025 | CSCOC1CC2OCC2(OC(C)=O)C2C(OC(=O)c3ccccc3)C3(O)CC(OC(=O)C(O)C(NC(=O)NC(C)(C)C)c4ccccc4)C(C)=C(C(OC(C)=O)C(=O)C12C)C3(C)C (centres unmarked) [Compound 55, 13-(N-(t-butylaminocarbonyl)-b-phenylisoserinyl)-baccatin III 7-O-methylthiomethyl ether] | – | – |
| 0.00034 | COC1CC2OCC2(OC(C)=O)C2C(OC(=O)c3ccccc3)C3(O)CC(OC(=O)C(O)C(NC(=O)NC(C)(C)C)c4ccccc4)C(C)=C(C(OC(C)=O)C(=O)C12C)C3(C)C (centres unmarked) [Compound 56, 13-(N-(t-butylaminocarbonyl)-b-phenylisoserinyl)-baccatin III 7-O-methyl ether] | – | – |
| – | CC(=O)O[C@H]1C(=O)[C@@]2(C)[C@H]([C@H](OC(=O)c3ccccc3)[C@]3(O)C[C@H](OC(=O)[C@H](O)[C@@H](NC(=O)c4ccccc4)c4ccccc4)C(C)=C1C3(C)C)[C@]1(OC(C)=O)CO[C@@H]1C[C@@H]2O [taxol, Taxol] | – | IC90 ([3]; read-out: IC90 (90% growth inhibitory concentration)): 17 ng/mL (≈ 19.9 nM); IC50 [2]: 0.0018 µg/mL (≈ 2.11 nM); IC50 [1]: 0.017 µg/mL (≈ 19.9 nM) |
| – | CC(=O)O[C@@]12CO[C@@H]1C[C@H](O)[C@@]1(C)C(=O)[C@H](O)C3=C(C)[C@@H](OC(=O)[C@H](O)[C@@H](NC(=O)OC(C)(C)C)c4ccccc4)C[C@@](O)([C@@H](OC(=O)c4ccccc4)[C@H]21)C3(C)C [taxotere, reference compound] | – | IC50 [2]: 0.0007 µg/mL (≈ 0.866 nM); IC50 [1]: 0.004 µg/mL (≈ 4.95 nM) |

| Molecule | A2780 (IC50 ug/ml) [2] [µg/mL] | L1210 (IC50 ug/ml) [1] [µg/mL] | further results |
| --- | --- | --- | --- |
| 13-(N-Boc-2'-TES-b-phenyl isoserinyl)-baccatin III 7-O-methyl ether [Compound 58] | 0.00038 | – | – |
| CSCOC1CC2OCC2(OC(C)=O)C2C(OC(=O)c3ccccc3)C3(O)CC(OC(=O)C(O)C(NC(=O)c4ccccc4)c4ccccc4)C(C)=C(C(OC(C)=O)C(=O)C12C)C3(C)C (centres unmarked) [Compound 42, 7-(O-methylthiomethyl) taxol] | 0.00047 | – | – |
| CC(=O)OC1C(=O)C2(C)C(OCSc3ccccc3)CC3OCC3(OC(C)=O)C2C(OC(=O)c2ccccc2)C2(O)CC(OC(=O)C(O)C(NC(=O)c3ccccc3)c3ccccc3)C(C)=C1C2(C)C (centres unmarked) [Compound 46, 7-(O-phenylthiomethyl) taxol] | 0.0016 | – | – |
| COC1CC2OCC2(OC(C)=O)C2C(OC(=O)c3ccccc3)C3(O)CC(OC(=O)C(O)C(NC(=O)c4ccccc4)c4ccccc4)C(C)=C(C(OC(C)=O)C(=O)C12C)C3(C)C (centres unmarked) [Compound 47, 7-O-methyl Taxol] | 0.0007 | – | A2780 (IC50 ug/ml) ([2]; retest): 0.00044 µg/mL |
| CCSC(C)OC1CC2OCC2(OC(C)=O)C2C(OC(=O)c3ccccc3)C3(O)CC(OC(=O)C(O)C(NC(=O)c4ccccc4)c4ccccc4)C(C)=C(C(OC(C)=O)C(=O)C12C)C3(C)C (centres unmarked) [Compound 49, 7-[O-ethyl(1-thioethyl)] Taxol] | 0.0057 | – | – |
